Laboratory results: patent publication US20090012088A1 (priority 2005, published 2009)
“Also recorded” adds a separate entry of the source. Where two headings read alike, the source gives them in different places.

Experiments:
U-937 cells = assay: Protection against H2O2 treatment of U-937 cells (cell survival); type: cell-based; settings: FIG. 13
Procedure: We have made multiple derivatives of PIP-1; these compounds are shown below in Table 2 and in FIG. 11 and labeled Structures 1-39. The neuroprotective effects of structures 1-26 were tested in the cellular assay and compared to the neuroprotective effect of PIP-1 (FIG. 13).
PIP-1 and structures 1-26 were screened for protection against H2O2 treatment of U-937 cells FIG. 13.

PARG [1] = assay: Table 2: small molecules tested for PARG inhibition activity (relative to PIP-1); type: biochemical
PARG [2] = molecular target: T1, PARG (Homo sapiens, UniProt Q86W56); settings: 32P-PAR assay; KM of PAR 1.7 μM; cited from earlier work
[3] = test system: neuronally differentiated PC-12 cells; assay: Protection from rotenone induced toxicity in neuronally differentiated PC-12 cells; type: cell-based
Procedure: Rotenone is a complex I poison and is widely used in cell culture and animal models of PD. (20, 31, 32) To determine if PIP-1 protects cells from rotenone insult, PC-12 cells are neuronally differentiated (with neuronal growth factor β for 10 days) and then treated with 10 μM rotenone and a range of PIP-1 concentrations. After 72 hours, cell death is assessed using propidium iodide staining as measured by flow cytometry. […] To determine the features on PIP-1 that are important for PARG inhibition and cell protection, three derivatives are constructed that lacked key functionality (see FIG. 19 compounds labeled 3, 4 and 5).
Cell culture conditions: HL-60 and SK-N-SH cells are grown in RPMI 1640 media supplemented with 10% FBS and PC-12 cells are grown in RPMI 1640 media supplemented with 10% HS and 5% FBS. All cell lines are incubated at 37° C. in a 5% CO2, 95% air atmosphere. HL-60 cells are split every two to three days as needed and SK-N-SH cells are split when they reach approximately 90% confluency at a 1:6 ratio. SK-N-SH cells are differentiated by adding media containing 10 μM retinoic acid (in DMSO). Media is replaced every other day and cells are differentiated for a total of 12 days. PC-12 cells are differentiated by adding media containing 25 ng/mL Neuronal Growth Factro β. Media is replaced every other day and cells are differentiated for a total of 10 days. Differentiation is observed by microscopy.
Protection of Rotenone and MPP^+ induced toxicity in PC-12 and SK-N-SH cells: SK-N-SH and PC-12 cells are neuronally differentiated as described above. 10 μM rotenone, 10 μM MPP^+ and various concentrations of PIP-1 or its derivatives are added to the cells and incubated for 72 h. The cells are then washed in PBS and the viability is determined by adding propidium iodide to 1 μg/mL and measuring the fluorescent intensity of each cell by flow cytometry.

PARG [4] = molecular target: PARG (Bos taurus, UniProt O02776); assay: Inhibition of PARG activity in vitro (quantitation of free ADP-ribose with benzamidine, fluorescence); type: biochemical; parameters: purchased Biomol
Procedure: PARG assay: Production and purification of PAR. PARP-1 (20 units) is added to 900 μL of PARP assay buffer containing 1 mM NAD^+ and 22.5 μg activated DNA. This reaction was run at 37° C. for 30 min and stopped by the addition of 300 μL of cold 100% trichloroacetic acid. The proteins thus precipitated are collected by centrifugation at 18,000 g for 30 min at 4° C. After removal of the supernatant, 1 mL of 1 M NaOH and 100 mM EDTA are added to the pellet and incubated for 2 h at 37° C. to cleave the PAR from the PARP protein acceptor. Then 9 mL of PAR buffer A (250 mM ammonium acetate, 6 M guanidinium HCl, 10 mM EDTA, pH 9.0) is added to the PAR and applied to a PROSEP-PB (Millipore) phenyl boronate column that is pre-equilibrated with PAR buffer A. The flowthrough is then reapplied to the column to ensure that all PAR is bound. The column is then washed with 25 mL of PAR buffer A, followed by 10 mL of PAR buffer B (1 M ammonium acetate and 1 mM EDTA, pH 9.0). The bound PAR is eluted with 4 mL of water collected in 1-mL fractions. Fractions containing PAR are pooled and concentrated. The concentration, measured as monomer, is determined by measuring the absorbance at 258 nm. PAR has an extinction coefficient of 13,500 cm^−1 at 258 nm.
Inhibition of PARG Activity: To determine the PARG IC50 values of the compounds, 39 μL of a 25.6 μM solution of PAR in PARG assay (50 mM KCl, 50 mM KH2PO4, pH 7.2) buffer and 1 μL of the compounds at varying concentrations (in PARG assay buffer) are added into the wells of a 384-well plate. The reaction is initiated by the addition of 10 μL of PARG (Biomol) at a concentration of 1 ng/ml (in PARG assay buffer), bringing the final concentration to […] and 20 μM PAR with varying concentrations of compounds in a total volume of 50 μL. The plate is incubated for 20 min at room temperature. The amount of free ADP-ribose hemiacetals is determined by the addition of 5 μL of an aqueous 8.5M KOH solution and 5 μL of an aqueous 850 μM benzamidine solution to each well. The plate is then incubated for 10 min in an oven set at 110° C. The plate is allowed to cool and then read on a Criterion Analyst AD with an excitation of 360 nm and an emission of 445 nm.

[5] = test system: NAD^+ depletion in HL-60 cell lysate; assay: Whole cell assay screen: NAD+ depletion in H2O2-activated HL-60 cell lysate; type: cell-based
Procedure: To identify a non-toxic, non-DNA intercalating, cell permeable small molecule inhibitor of PARG, a high-throughput screen is devised. Given the severe challenges in isolating enough of the PAR substrate for an in vitro screen directly for PARG inhibition, we develop a primary screen that utilizes cell lysates and, in particular, mammalian cell lysates. In this assay, HL-60 cells are treated with H2O2 to damage their DNA (which activates PARP-1) and then lyse the cells. In individual wells of a 384-well plate, this cell lysate is incubated with 22,000 different small molecules from an in-house compound collection; these compounds are either purchased (from ChemBridge Corp.) or collected from various sources at the University of Illinois. (28) NAD^+ levels are measured using a fluorescent method based on the chemical conversion of NAD^+ to a fluorescent product (29, 30) (FIG. 14A). The amount of NAD^+ consumed in each well is monitored, and any compounds that prevent NAD^+ consumption are classified “hits” in this primary screen.
Library screen: 12.5 μL of Lysing PARP buffer (50 mM Tris, 10 mM MgCl2, pH 8.0, 1% Triton X-100) containing 100 μM NAD^+ is added to each well of a 384-well plate. Library compounds at 10 mM in DMSO are transferred using a 384-well pin transfer device that delivers 0.1 μL. HL-60 cells are spun down at 200 g for 5 min. and resuspended in Lysing PARP buffer to a concentration of 8×10^6 cells/mL. 10 μL of a 30% H2O2 solution is added per mL of cells. 12.5 μL of the activated cell lysate is added to the plates. The plates are incubated for 60 min. at 37° C. The concentration of NAD^+ is then determined using a fluorescent assay^1. 10 μL of a 2 M KOH solution and 10 μL of a 20% acetophenone solution (in ethanol) is added to each well. The plate is then incubated at 4° C. for 10 min. 45 μL of a 88% formic acid solution was added to each well. The plate was then incubated for 5 min. in a 110° C. oven. Once the plate cools, the fluorescent intensity of each well is determined on a Criterion Analyst AD (Molecular Devices) with an excitation of 360 nm and an emission of 445 nm.

PARG [6] = molecular target: T1, PARG; settings: tannins; read-out: in vitro IC50 for PARG; cited from earlier work

T1 sequence (Q86W56 whole entry, species assumed): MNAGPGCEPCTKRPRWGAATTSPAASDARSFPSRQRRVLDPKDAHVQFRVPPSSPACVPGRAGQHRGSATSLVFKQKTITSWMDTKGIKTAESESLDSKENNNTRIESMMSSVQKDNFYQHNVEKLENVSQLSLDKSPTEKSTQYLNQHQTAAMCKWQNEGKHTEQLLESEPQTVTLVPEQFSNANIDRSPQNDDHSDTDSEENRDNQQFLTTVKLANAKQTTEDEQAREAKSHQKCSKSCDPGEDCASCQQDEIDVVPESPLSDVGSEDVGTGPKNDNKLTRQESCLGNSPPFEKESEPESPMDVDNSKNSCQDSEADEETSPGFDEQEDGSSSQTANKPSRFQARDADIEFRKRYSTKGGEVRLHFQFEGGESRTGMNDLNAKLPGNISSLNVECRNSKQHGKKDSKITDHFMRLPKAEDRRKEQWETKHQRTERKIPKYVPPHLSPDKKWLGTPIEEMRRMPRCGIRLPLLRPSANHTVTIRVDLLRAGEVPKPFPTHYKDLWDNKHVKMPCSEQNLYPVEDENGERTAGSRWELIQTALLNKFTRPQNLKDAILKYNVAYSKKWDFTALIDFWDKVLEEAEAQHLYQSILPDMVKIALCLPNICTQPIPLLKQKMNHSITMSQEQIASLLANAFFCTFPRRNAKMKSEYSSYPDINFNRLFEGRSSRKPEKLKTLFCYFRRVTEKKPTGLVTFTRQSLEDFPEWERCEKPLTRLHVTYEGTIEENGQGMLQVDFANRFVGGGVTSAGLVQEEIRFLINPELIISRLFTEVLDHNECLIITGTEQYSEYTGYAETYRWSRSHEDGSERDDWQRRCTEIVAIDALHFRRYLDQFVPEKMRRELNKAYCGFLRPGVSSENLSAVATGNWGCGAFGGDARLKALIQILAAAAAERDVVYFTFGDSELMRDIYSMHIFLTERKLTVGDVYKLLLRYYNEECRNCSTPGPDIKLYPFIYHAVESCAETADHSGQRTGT
PARG (Bos taurus, UniProt O02776), sequence (O02776 whole entry): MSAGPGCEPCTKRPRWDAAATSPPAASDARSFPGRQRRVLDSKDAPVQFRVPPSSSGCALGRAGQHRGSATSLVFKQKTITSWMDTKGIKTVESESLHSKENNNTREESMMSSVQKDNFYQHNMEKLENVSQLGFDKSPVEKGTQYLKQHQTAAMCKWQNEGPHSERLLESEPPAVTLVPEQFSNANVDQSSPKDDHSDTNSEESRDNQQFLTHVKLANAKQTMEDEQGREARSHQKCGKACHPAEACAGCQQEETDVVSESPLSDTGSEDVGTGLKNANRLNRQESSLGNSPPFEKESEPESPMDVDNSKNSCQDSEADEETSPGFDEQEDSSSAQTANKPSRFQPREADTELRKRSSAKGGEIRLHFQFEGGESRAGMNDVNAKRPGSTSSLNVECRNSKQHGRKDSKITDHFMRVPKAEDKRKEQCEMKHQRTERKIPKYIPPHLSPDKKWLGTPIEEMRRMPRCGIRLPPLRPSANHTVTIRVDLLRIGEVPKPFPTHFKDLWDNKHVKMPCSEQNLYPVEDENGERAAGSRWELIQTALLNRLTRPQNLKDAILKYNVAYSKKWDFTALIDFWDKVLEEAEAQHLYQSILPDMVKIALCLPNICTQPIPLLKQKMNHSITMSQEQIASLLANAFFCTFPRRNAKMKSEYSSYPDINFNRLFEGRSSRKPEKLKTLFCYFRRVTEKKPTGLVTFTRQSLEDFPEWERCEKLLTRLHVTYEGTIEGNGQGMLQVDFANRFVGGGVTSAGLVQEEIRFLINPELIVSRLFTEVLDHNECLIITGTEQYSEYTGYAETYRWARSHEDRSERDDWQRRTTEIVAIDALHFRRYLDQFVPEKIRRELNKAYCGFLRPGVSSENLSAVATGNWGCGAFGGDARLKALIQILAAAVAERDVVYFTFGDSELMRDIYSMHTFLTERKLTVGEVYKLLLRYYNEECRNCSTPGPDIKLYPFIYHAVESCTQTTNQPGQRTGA

Compound	Protection of U-937 cells treated with H2O2 (activity compared to PIP-1) (U-937 cells)	Activity (PARG [1])	further results
4-Amino-5-dimethylamino-2-phenyl-2H-pyridazin-3-one [PIP-1]	low or no activity	moderate	
CCCCCCNc1c(Cl)cnn(-c2ccccc2)c1=O [Structure 7]		low	
Nc1c(Cl)cnn(-c2ccccc2)c1=O [Structure 8]		low	
CC(=O)Nc1c(Cl)cnn(-c2ccccc2)c1=O [Structure 9]		low	
CC(=O)N(C(C)=O)c1c(Cl)cnn(-c2ccccc2)c1=O [Structure 10]		low	
CCN(CC)c1cnn(-c2ccccc2)c(=O)c1N [Structure 11]	activity similar or better than PIP-1	good	
CCCN(CCC)c1cnn(-c2ccccc2)c(=O)c1N [Structure 12]	activity similar or better than PIP-1	good	
CCCCN(CCCC)c1cnn(-c2ccccc2)c(=O)c1N [Structure 13]	activity similar or better than PIP-1	good	
CCCCN(CCCC)c1cnn(-c2ccccc2)c(=O)c1NC(C)=O [Structure 14]	low or no activity	low	
CCCCN(CC)c1cnn(-c2ccccc2)c(=O)c1N [Structure 15]	moderate activity	moderate	
CCCCN(CC)c1cnn(-c2ccccc2)c(=O)c1NC(C)=O [Structure 16]	low or no activity	low	
Nc1c(N2CCCC2)cnn(-c2ccccc2)c1=O [Structure 17]	moderate activity	moderate	
CC(=O)Nc1c(N2CCCC2)cnn(-c2ccccc2)c1=O [Structure 18]	moderate activity	moderate	
Nc1c(N2CCCCC2)cnn(-c2ccccc2)c1=O [Structure 19]	activity similar or better than PIP-1	good	
CC(=O)Nc1c(N2CCCCC2)cnn(-c2ccccc2)c1=O [Structure 20]	activity similar or better than PIP-1	good	
Nc1c(N2CCOCC2)cnn(-c2ccccc2)c1=O [Structure 21]	activity similar or better than PIP-1	good	
CC(=O)Nc1c(N2CCOCC2)cnn(-c2ccccc2)c1=O [Structure 22]	moderate activity	moderate	
CC(=O)Nc1c(N(C)C)cnn(-c2ccccc2)c1=O [Structure 24]	moderate activity	moderate	
CCN(CC)c1cnn(-c2ccccc2)c(=O)c1NC(C)=O [Structure 25]	moderate activity	moderate	
CCCN(CCC)c1cnn(-c2ccccc2)c(=O)c1NC(C)=O [Structure 26]	low or no activity	low	
CN(C)c1cnn(C)c(=O)c1N [Structure 39]		low	
CCN(CC)CCOc1ccc2c(c1)C(=O)c1cc(OCCN(CC)CC)ccc1-2 [Tilorone]			Ki (PARG [2]): ~7 µM
CN(C)c1ccn(-c2ccccc2)c(=O)c1N [compound 4, 3-Amino-4-dimethylamino-1-phenyl-1H-pyridin-2-one]			Protection of rotenone-treated neuronally differentiated PC-12 cells (in words) ([3]; listed as lactam 4): virtually identical PARG inhibition and cell protection properties as PIP-1; also recorded: protect; PARG inhibition in vitro (in words) (PARG [4]; listed as lactam 4): virtually identical PARG inhibition and cell protection properties as PIP-1; also recorded: inhibit PARG activity in vitro; Inhibition of NAD+ depletion in the whole cell assay [5]: inhibit NAD^+ depletion
CN(C)c1cnn(C)c(=O)c1N [compound 6, 4-Amino-5-dimethylamino-2-methyl-2H-pyridazin-3-one]			Protection of rotenone-treated neuronally differentiated PC-12 cells (in words) [3]: inactive; Protection of rotenone-treated neuronally differentiated PC-12 cells (in words) ([3]; listed as analogue 6): do not protect; PARG inhibition in vitro (in words) (PARG [4]): inactive; PARG inhibition in vitro (in words) (PARG [4]; listed as analogue 6): do not inhibit NAD^+ depletion or PARG activity; Inhibition of NAD+ depletion in the whole cell assay [5]: do not inhibit NAD^+ depletion
O=c1c(Cl)c(O)cnn1-c1ccccc1 [entry 3, reference compound]	low or no activity	low	
CCOc1ccc2nc3cc(N)ccc3c(N)c2c1 [ethacridine]			Ki (PARG [2]): < 7 µM
Nc1ccc2cc3ccc(N)cc3nc2c1 [profavine]			Ki (PARG [2]): 36 µM
Oenothein B			IC50 (PARG [6]): 3.8 µM
